Here are results for 28 compounds from ChEMBL document CHEMBL5036378, “Discovery of 5-Aryl-2,4-diaminopyrimidine Compounds as Potent and Selective IRAK4 Inhibitors” (ACS Med Chem Lett, 2022).

In one series the test system is THP-1. The experiment in a line: Antiinflammatory activity against human THP-1 cells assessed as inhibition of LPS induced IL-23 production preincubated with compound for 1 hr followed by LPS stimulation and measured after 18 hrs by cell based ELISA method. It is filed as functional. (In general: In an ELISA, binding on a coated surface is turned into a signal by an enzyme label.)

For series [1], the target named is T1, Interleukin-1 receptor-associated kinase 4 (Homo sapiens, UniProt Q9NWZ3).
T1 sequence (Q9NWZ3 whole entry): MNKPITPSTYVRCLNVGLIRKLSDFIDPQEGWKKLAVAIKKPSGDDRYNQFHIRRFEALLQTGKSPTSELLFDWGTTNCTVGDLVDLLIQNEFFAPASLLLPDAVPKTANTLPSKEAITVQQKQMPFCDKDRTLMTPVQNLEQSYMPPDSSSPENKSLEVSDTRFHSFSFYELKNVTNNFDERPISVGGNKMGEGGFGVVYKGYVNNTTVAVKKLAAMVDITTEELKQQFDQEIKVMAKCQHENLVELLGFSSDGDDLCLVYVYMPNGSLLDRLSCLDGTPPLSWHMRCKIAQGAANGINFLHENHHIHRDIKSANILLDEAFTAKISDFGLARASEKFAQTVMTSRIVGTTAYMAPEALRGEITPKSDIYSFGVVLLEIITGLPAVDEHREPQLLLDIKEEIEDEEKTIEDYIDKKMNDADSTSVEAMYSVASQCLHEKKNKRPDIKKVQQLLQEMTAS
Description: Inhibition of IRAK4 (unknown origin) in presence of MBP as substrate by ADP-Glo assay. (In general: ADP-Glo turns the ADP formed in a reaction into a luminescent signal.)

Series [2] has as its target T2, Mitogen-activated protein kinase kinase kinase 7 (Homo sapiens, UniProt O43318).
T2 sequence (O43318 whole entry): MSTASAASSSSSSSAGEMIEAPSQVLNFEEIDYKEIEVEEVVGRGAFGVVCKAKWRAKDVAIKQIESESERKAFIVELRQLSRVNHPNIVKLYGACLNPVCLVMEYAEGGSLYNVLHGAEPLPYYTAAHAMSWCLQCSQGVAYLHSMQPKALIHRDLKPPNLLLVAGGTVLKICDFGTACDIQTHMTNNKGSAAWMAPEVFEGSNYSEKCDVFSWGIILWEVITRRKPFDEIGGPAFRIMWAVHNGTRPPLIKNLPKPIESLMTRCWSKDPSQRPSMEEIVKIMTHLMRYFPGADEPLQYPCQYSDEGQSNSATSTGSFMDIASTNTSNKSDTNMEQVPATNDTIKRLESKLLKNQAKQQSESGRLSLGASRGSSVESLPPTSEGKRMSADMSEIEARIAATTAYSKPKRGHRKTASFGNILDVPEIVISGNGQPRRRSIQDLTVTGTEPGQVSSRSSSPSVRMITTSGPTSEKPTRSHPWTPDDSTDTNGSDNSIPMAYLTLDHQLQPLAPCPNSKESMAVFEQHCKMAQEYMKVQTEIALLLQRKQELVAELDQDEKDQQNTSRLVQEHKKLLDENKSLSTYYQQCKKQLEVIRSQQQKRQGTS
Description: Inhibition of TAK1 (unknown origin) in presence of MBP as substrate by ADP-Glo assay.

A short description of series [3]: Drug concentration in female BALB/c mouse plasma at 75 mg/kg, po incubated for 30 mins followed by IL-1beta administration and measured after 30 mins. It is filed as ADME, organism-based. The note with it: time 60 min, read-out: Drug uptake.
A short description of series [4]: Antiinflammatory activity against human monocyte derived dendritic cells assessed as inhibition of LPS induced IL-23 production preincubated with compound for 1 hr followed by LPS stimulation and measured after 18 hrs by cell based ELISA method. It is filed as functional.
The subject of another series is Mus musculus. The experiment in a line: Antiinflammatory activity in female BALB/c mouse assessed as inhibition of IL-1beta induced IL-6 levels at 75 mg/kg, po for 30 mins followed by IL-1beta administration and measured after 1.5 hrs by ELISA method. It is filed as functional. The note with it: time 2 hrs.
In a further series the test system is Blood. Description: Antiinflammatory activity against human whole blood assessed as inhibition of IL-1beta induced MIP-1beta production preincubated with compound for 1 hr followed by IL-1beta stimulation and measured after 12 hrs by cell based ELISA method. In kind it is functional, tissue-based.
Series [5] concerns HUVEC. Description: Antiinflammatory activity against HUVEC cells assessed as inhibition of IL-1beta induced IL-6 production preincubated with compound for 1 hr followed by IL-1beta stimulation and measured after 12 hrs by cell based ELISA method. The note with it: Homo sapiens. In kind it is functional.
For series [6], the system named is HUVEC. The experiment in a line: Antiinflammatory activity against HUVEC cells assessed as inhibition of LPS induced IL-6 production measured by ELISA method. It is filed as functional, cell-based. The note with it: Homo sapiens.

The structures appear in SMILES notation.

For `NC(=O)[C@@H]1[C@H](Nc2nc(Nc3cccc(C(=O)N4CCCC4)c3)ncc2-c2ccncc2)[C@H]2C=C[C@@H]1C2`, the IC50 with THP-1 amounted to 320 nM; in [1], 10 nM; in series [2], 230 nM.

With `NC(=O)[C@@H]1[C@H](Nc2nc(Nc3cccc(-c4cnco4)c3)ncc2-c2cccc(F)c2)[C@H]2C=C[C@@H]1C2`, the IC50 with THP-1 was 390 nM; in [1], 25 nM; in series [2], 270 nM.

Take `NC(=O)[C@@H]1[C@H](Nc2nc(Nc3cccc(C(=O)N4CCCC4)c3)ncc2-c2ccoc2)[C@H]2C=C[C@@H]1C2`: the 50% inhibitory concentration (IC50) in the series on THP-1 was 40 nM.

As to `Cc1cnc(Nc2cccc(C(=O)N3CCCC3)c2)nc1N[C@H]1[C@@H](C(N)=O)[C@@H]2C=C[C@H]1C2`, in the series with THP-1, the IC50 stood at 100 nM.

On to `N#Cc1ccc(-c2cnc(Nc3cccc(C(=O)N4CCCC4)c3)nc2N[C@H]2[C@@H](C(N)=O)[C@@H]3C=C[C@H]2C3)cc1`, for which the IC50 in the series with THP-1 came out at 190 nM.

For `NC(=O)[C@@H]1[C@H](Nc2nc(Nc3cccc(C(=O)N4CCCC4)c3)ncc2-c2cncc(F)c2)[C@H]2C=C[C@@H]1C2`, the concentration at 1 h in [3] turned out to be 2880 ng/mL.

Regarding `NC(=O)[C@@H]1[C@H](Nc2nc(Nc3cccc(C(=O)N4CCCC4)c3)ncc2-c2ccsc2)[C@H]2C=C[C@@H]1C2`, the figures for the IC50 (with THP-1; in series [1]; in series [2]) were 110 nM, 5 nM and 27 nM, respectively.

Take `CN1CCN(c2ccc(Nc3ncc(-c4cccc(F)c4)c(N[C@H]4[C@@H](C(N)=O)[C@@H]5C=C[C@H]4C5)n3)cn2)CC1`: the IC50 amounted to 240 nM with THP-1, 26 nM in series [1] and 280 nM in series [2].

`NC(=O)[C@@H]1[C@H](Nc2nc(Nc3ccc(-c4cnco4)cc3)ncc2-c2cccc(F)c2)[C@H]2C=C[C@@H]1C2`: the IC50 with THP-1 amounted to 290 nM; in series [1], 37 nM; in series [2], 390 nM.

Regarding `NC(=O)[C@@H]1[C@H](Nc2nc(Nc3cccc(C(=O)N4CCCC4)c3)ncc2-c2cccc(F)c2)[C@H]2C=C[C@@H]1C2`, the IC50 in the series on THP-1 stood at 870 nM; in series [1] it was 4 nM; in series [2], 24 nM.

Take `NC(=O)[C@@H]1[C@H](Nc2nc(Nc3ccc(C(=O)N4CCCC4)cc3)ncc2-c2cccnc2)[C@H]2C=C[C@@H]1C2`: the half-inhibitory concentration (IC50) came out at 230 nM in the series with THP-1, 26 nM in series [1] and 250 nM in [2].

With `NC(=O)[C@@H]1[C@H](Nc2nc(Nc3cc(F)cc(N4CCOCC4)c3)ncc2-c2cccc(F)c2)[C@H]2C=C[C@@H]1C2`, the IC50 with THP-1 was determined as 250 nM; in series [1], 12 nM; in series [2], 1000 nM.

On to `NC(=O)[C@@H]1[C@H](Nc2nc(Nc3ccc(N4CCOCC4)nc3)ncc2-c2cccc(F)c2)[C@H]2C=C[C@@H]1C2`, for which the values for the IC50 (with THP-1; in [1]; in series [2]) were 210 nM, 25 nM and 450 nM, respectively.

On to `CN1CCN(c2cc(F)cc(Nc3ncc(-c4cccc(F)c4)c(N[C@H]4[C@@H](C(N)=O)[C@@H]5C=C[C@H]4C5)n3)c2)CC1`, for which the concentration for half-maximal inhibition (IC50) in the series on THP-1 was determined as 260 nM; in [1] it was 18 nM; in series [2], 100 nM.

For the compound `NC(=O)[C@@H]1[C@H](Nc2nc(Nc3ccc(OCCN4CCCC4)cc3)ncc2-c2cccnc2)[C@H]2C=C[C@@H]1C2`, the half-maximal inhibitory concentration (IC50) in the series with THP-1 worked out at 700 nM; in [1], 103 nM; in series [2], 380 nM.

Consider `NC(=O)[C@@H]1[C@H](Nc2nc(Nc3cccc(C(=O)N4CCCC4)c3)ncc2-c2ccccc2)[C@H]2C=C[C@@H]1C2`, for which the IC50 in the series on THP-1 turned out to be 220 nM; in series [2], 170 nM.

As for `NC(=O)[C@@H]1[C@H](Nc2nc(Nc3cccc(C(=O)N4CCCC4)c3)ncc2-c2ccc(F)cc2)[C@H]2C=C[C@@H]1C2`, the half-inhibitory concentration (IC50) in the series with THP-1 was found to be 460 nM.

For the compound `CN1CCN(C(=O)c2cccc(Nc3ncc(-c4cccc(F)c4)c(N[C@H]4[C@@H](C(N)=O)[C@@H]5C=C[C@H]4C5)n3)c2)CC1`, the IC50 in the series with THP-1 came out at 130 nM; in [1], 5 nM; in series [2] it was 48 nM.

As to `NC(=O)[C@@H]1[C@H](Nc2nc(Nc3cccc(C(=O)N4CCCC4)c3)ncc2-c2ccccc2F)[C@H]2C=C[C@@H]1C2`, the IC50 stood at 130 nM with THP-1 and 11 nM in [1].

For the compound `NC(=O)[C@@H]1[C@H](Nc2nc(Nc3cccc(C(=O)N4CCCC4)c3)ncc2C2CC2)[C@H]2C=C[C@@H]1C2`, the IC50 with THP-1 came to 90 nM.

Regarding `Cc1cc(Nc2ncc(-c3cccnc3)c(N[C@H]3[C@@H](C(N)=O)[C@@H]4C=C[C@H]3C4)n2)ccc1OCCN1CCCC1`, the IC50 with THP-1 was determined as 1100 nM; in series [1], 179 nM; in series [2], 450 nM.

As for `NC(=O)[C@@H]1[C@H](Nc2nc(Nc3cccc(C(=O)N4CCOCC4)c3)ncc2-c2cccc(F)c2)[C@H]2C=C[C@@H]1C2`, the IC50 came out at 220 nM with THP-1, 14 nM in series [1] and 94 nM in series [2].

On to `CN1CCN(c2cc(Nc3ncc(-c4cccc(F)c4)c(N[C@H]4[C@@H](C(N)=O)[C@@H]5C=C[C@H]4C5)n3)ccn2)CC1`, for which the IC50 is 50 nM with THP-1, 6 nM in series [1] and 120 nM in series [2].

For the compound `N#Cc1cccc(-c2cnc(Nc3cccc(C(=O)N4CCCC4)c3)nc2N[C@H]2[C@@H](C(N)=O)[C@@H]3C=C[C@H]2C3)c1`, the IC50 in the series on THP-1 was determined as 280 nM; in [2], 100 nM.

`NC(=O)[C@@H]1[C@H](Nc2nc(Nc3ccnc(N4CCOCC4)c3)ncc2-c2cccc(F)c2)[C@H]2C=C[C@@H]1C2`: the values for the IC50 (with THP-1; in [1]; in [2]) were 40 nM, 8 nM and 160 nM, respectively.

As for `NC(=O)[C@@H]1[C@H](Nc2nc(Nc3ccnc(N4CCCC4)c3)ncc2-c2cccc(F)c2)[C@H]2C=C[C@@H]1C2`, the IC50 was determined as 280 nM with THP-1, 33 nM in series [1] and 2400 nM in series [2].

Consider `NC(=O)[C@@H]1[C@H](Nc2nc(Nc3cccc(C(=O)N4CCCC4)c3)ncc2-c2ccnc(F)c2)[C@H]2C=C[C@@H]1C2`, for which, in series [3], the concentration at 1 h stood at 6820 ng/mL. In addition, the IC50 with THP-1 worked out at 100 nM; in series [4], 110 nM; with Blood, 510 nM; with HUVEC [5], 110 nM; with HUVEC [6] it was 120 nM. The inhibition in vivo at 75 mg/kg in the series on Mus musculus worked out at 64%.

As for `NC(=O)[C@@H]1[C@H](Nc2nc(Nc3cccc(C(=O)N4CCCC4)c3)ncc2-c2cccnc2)[C@H]2C=C[C@@H]1C2`, the IC50 in the series with THP-1 is 320 nM.

In general, IC50 refers to the point on the concentration scale where inhibition reaches its midpoint. For orientation: inhibition in vivo means the relative decrease from the control value, in per cent.
